Results taken from ChEMBL document CHEMBL5154738, “Design, synthesis and structural-activity relationship studies of phanginin A derivatives for regulating SIK1-cAMP/CREB signaling to suppress hepatic gluconeogenesis” (Eur J Med Chem, 2022).

How the values were obtained:
[1] = Inhibition of gluconeogenesis in C57BL/6J mouse primary hepatocytes assessed as inhibition of glucagon-stimulated glucose production at 10 uM preincubated for 1.5 hrs followed by lactate and pyruvate addition and later stimulated with glucagon for 4 hrs; type: functional; settings: Hepatocyte, time 5.5 hrs
[2] = Inhibition of gluconeogenesis in C57BL/6J mouse primary hepatocytes assessed as inhibition of glucagon-stimulated glucose production at 5 uM preincubated for 1.5 hrs followed by lactate and pyruvate addition and later stimulated with glucagon for 4 hrs; type: functional; settings: Hepatocyte, time 5.5 hrs
[3] = Inhibition of gluconeogenesis in C57BL/6J mouse primary hepatocytes assessed as inhibition of glucagon-stimulated glucose production at 2.5 uM preincubated for 1.5 hrs followed by lactate and pyruvate addition and later stimulated with glucagon for 4 hrs; type: functional; settings: Hepatocyte, time 5.5 hrs
[4] = Cytotoxicity against C57BL/6J mouse primary hepatocytes assessed as cell viability at 20 uM incubated for 24 hrs by MTT assay relative to control; type: toxicity, cell-based, Hepatocyte; settings: read-out: Activity
[5] = Cytotoxicity against C57BL/6J mouse primary hepatocytes assessed as cell viability at 10 uM incubated for 24 hrs by MTT assay relative to control; type: toxicity, cell-based, Hepatocyte; settings: read-out: Activity
[6] = Cytotoxicity against C57BL/6J mouse primary hepatocytes assessed as cell viability at 50 uM incubated for 24 hrs by MTT assay relative to control; type: toxicity, cell-based, Hepatocyte; settings: read-out: Activity
[7] = Cytotoxicity against C57BL/6J mouse primary hepatocytes assessed as cell viability at 100 uM incubated for 24 hrs by MTT assay relative to control; type: toxicity, cell-based, Hepatocyte; settings: read-out: Activity
[8] = Cytotoxicity against C57BL/6J mouse primary hepatocytes assessed as cell viability at 200 uM incubated for 24 hrs by MTT assay relative to control; type: toxicity, cell-based, Hepatocyte; settings: read-out: Activity
[9] = biological target: Serine/threonine-protein kinase SIK1 (Mus musculus) (UniProt Q60670); test: Activation of SIK1 in C57BL/6J mouse primary hepatocytes assessed as increase in SIK1 phosphorylation at Thr182 residue measured after 2 hrs by western blot analysis; type: cell-based; settings: Primary hepatocyte, filed as activator, dose 2.5-10 µM, DDE = dose-dependent effect
Sequence of Serine/threonine-protein kinase SIK1 (Mus musculus) (Q60670 whole entry): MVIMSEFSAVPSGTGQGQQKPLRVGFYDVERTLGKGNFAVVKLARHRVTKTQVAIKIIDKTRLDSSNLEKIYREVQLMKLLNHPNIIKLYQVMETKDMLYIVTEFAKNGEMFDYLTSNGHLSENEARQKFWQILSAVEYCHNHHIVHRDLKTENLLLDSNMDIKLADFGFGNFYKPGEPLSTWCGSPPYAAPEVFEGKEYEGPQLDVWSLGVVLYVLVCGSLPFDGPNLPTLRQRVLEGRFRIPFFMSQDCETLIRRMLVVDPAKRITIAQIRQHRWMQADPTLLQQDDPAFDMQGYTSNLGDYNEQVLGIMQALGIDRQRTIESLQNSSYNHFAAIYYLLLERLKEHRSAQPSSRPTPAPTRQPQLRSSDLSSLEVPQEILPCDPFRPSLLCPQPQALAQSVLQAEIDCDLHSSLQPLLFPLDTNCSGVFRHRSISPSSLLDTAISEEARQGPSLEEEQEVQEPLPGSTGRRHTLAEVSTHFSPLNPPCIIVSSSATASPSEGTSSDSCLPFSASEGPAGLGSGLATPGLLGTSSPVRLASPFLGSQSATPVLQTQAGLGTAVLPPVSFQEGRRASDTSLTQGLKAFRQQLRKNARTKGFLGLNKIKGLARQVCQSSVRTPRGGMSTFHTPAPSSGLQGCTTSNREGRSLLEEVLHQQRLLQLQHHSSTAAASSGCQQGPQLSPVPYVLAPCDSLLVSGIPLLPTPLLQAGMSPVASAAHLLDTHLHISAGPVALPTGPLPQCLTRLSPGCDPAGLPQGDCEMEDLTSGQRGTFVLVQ

| Compound | inhibition at 10 µM [1] | inhibition at 5 µM [2] | inhibition at 2.5 µM [3] | viability at 24 h, 20 µM [4] | viability at 24 h, 10 µM [5] | viability at 24 h, 50 µM [6] | viability at 24 h, 100 µM [7] | viability at 24 h, 200 µM [8] | Activity [9] |
| --- | --- | --- | --- | --- | --- | --- | --- | --- | --- |
| C[C@H]1c2ccoc2C[C@H]2[C@H]1CC[C@@H]1C23CCC[C@]1(C(=O)O)CO[C@H]3OCCO | 24.3% |  |  |  |  |  |  |  |  |
| COC(=O)[C@@]12CCCC3([C@H](OCCO)OC1)[C@H]2CC[C@H]1[C@@H](C)C2=CC(=O)O[C@]2(O)C[C@@H]13 | -12.3% |  |  |  |  |  |  |  |  |
| COC(=O)[C@@]12CCCC3([C@H](OCCCCCO)OC1)[C@H]2CC[C@H]1[C@@H](C)c2ccoc2C[C@@H]13 | 89.2% | 82.7% | 32.2% | 33.3% | 70.1% | 17.2% | 19.3% | 18.7% |  |
| CNC(=O)[C@@]12CCCC3([C@H](OCCO)OC1)[C@H]2CC[C@H]1[C@@H](C)c2ccoc2C[C@@H]13 | 56.6% | 34.2% | 9.6% | 84.7% | 82.9% | 85.8% | 82.6% | 76.3% |  |
| C[C@H]1c2ccoc2C[C@H]2[C@H]1CC[C@@H]1C23CCC[C@]1(CO)CO[C@H]3OCCO | 71.1% | 69.4% | 41.4% | 69.6% | 74.8% | 63.9% | 42.2% | 13.2% |  |
| COC(=O)[C@@]12CCCC3([C@H](OCCOCCOCCO)OC1)[C@H]2CC[C@H]1[C@@H](C)c2ccoc2C[C@@H]13 | 97.1% | 97.4% | 47.2% | 23.4% | 40.5% | 12.1% | 10.3% | 8.1% |  |
| COC(=O)[C@@]12CCCC3([C@H](OCCCCO)OC1)[C@H]2CC[C@H]1[C@@H](C)c2ccoc2C[C@@H]13 | 92.7% | 95.8% | 47% | 27.5% | 54% | 19.8% | 18.7% | 17.6% |  |
| COC(=O)[C@]12CCC[C@]3(COC1)[C@H]1C[C@H]4OCC[C@H]4[C@H](C)[C@@H]1CC[C@@H]23 | 36.3% |  |  |  |  |  |  |  |  |
| CCCNC(=O)[C@@]12CCCC3([C@H](OCCO)OC1)[C@H]2CC[C@H]1[C@@H](C)c2ccoc2C[C@@H]13 | 62.1% | 45% | 21.2% | 77.5% | 84.3% | 70.5% | 57.4% | 27.5% |  |
| COC(=O)[C@@]12CCC[C@]3(C(=O)OC1)[C@H]1Cc4occc4[C@H](C)[C@@H]1CC[C@@H]23 | 41.2% |  |  |  |  |  |  |  |  |
| COC(=O)[C@@]12CCC[C@]3(COC1)[C@H]1Cc4occc4[C@H](C)[C@@H]1CC[C@@H]23 | 52% |  |  |  |  |  |  |  |  |
| COC(=O)[C@@]12CCCC3([C@H](OC)OC1)[C@H]2CC[C@H]1[C@@H](C)c2ccoc2C[C@@H]13 | 18.8% |  |  |  |  |  |  |  |  |
| CC(=O)OCCO[C@@H]1OC[C@@]2(CO)CCCC13[C@H]2CC[C@H]1[C@@H](C)c2ccoc2C[C@@H]13 | 77.3% | 54.4% | 25.1% | 84.1% | 81.7% | 77.7% | 79.9% | 14.1% |  |
| CCO[C@@H]1OC[C@@]2(C(=O)OC)CCCC13[C@H]2CC[C@H]1[C@@H](C)c2ccoc2C[C@@H]13 | 24.9% |  |  |  |  |  |  |  |  |
| CCNC(=O)[C@@]12CCCC3([C@H](OCCO)OC1)[C@H]2CC[C@H]1[C@@H](C)c2ccoc2C[C@@H]13 | 66.1% | 52.8% | 21.8% | 84.1% | 84.2% | 90% | 73.4% | 47.5% |  |
| COC(=O)[C@@]12CCCC3([C@H](O)OC1)[C@H]2CC[C@H]1[C@@H](C)[C@@H]2CCO[C@@H]2C[C@@H]13 | 41.1% |  |  |  |  |  |  |  |  |
| CC(=O)OC[C@@]12CCCC3([C@H](OCCO)OC1)[C@H]2CC[C@H]1[C@@H](C)c2ccoc2C[C@@H]13 | 82.7% | 32.1% | -2.1% | 78.1% | 83.2% | 85% | 92.4% | 14.2% |  |
| COC(=O)[C@]12CCCC3([C@H]1CC[C@H]1[C@@H](C)c4ccoc4C[C@@H]13)[C@H](SCCO)OC2 | 67.3% | 44.4% | 13.1% | 97.9% | 105% | 74.1% | 10.2% | 9.2% |  |
| COC(=O)[C@@]12CCCC3([C@H](OCCOCCOCCOCCO)OC1)[C@H]2CC[C@H]1[C@@H](C)c2ccoc2C[C@@H]13 | 111% | 87.8% | 63.1% | 25.4% | 48.9% | 12.9% | 11% | 7.9% | Dde |
| COC(=O)[C@@]12CCCC3([C@H](OCCCO)OC1)[C@H]2CC[C@H]1[C@@H](C)c2ccoc2C[C@@H]13 | 97.5% | 81.8% | 32.7% | 20.6% | 49.7% | 14.1% | 12% | 9.9% |  |
| CCCCO[C@@H]1OC[C@@]2(C(=O)OC)CCCC13[C@H]2CC[C@H]1[C@@H](C)c2ccoc2C[C@@H]13 | 36.2% |  |  |  |  |  |  |  |  |
| COC(=O)[C@@]12CCCC3([C@H](OCCCCCCO)OC1)[C@H]2CC[C@H]1[C@@H](C)c2ccoc2C[C@@H]13 | 81.8% | 67.2% | 33.5% | 81.5% | 89.3% | 28.6% | 11.3% | 11.4% |  |
| COC(=O)[C@@]12CCCC3([C@H](OCCOCCO)OC1)[C@H]2CC[C@H]1[C@@H](C)c2ccoc2C[C@@H]13 | 95.6% | 93.3% | 67.3% | 17.4% | 28.3% | 12% | 10.6% | 7.9% | Dde |
| COC(=O)[C@@]12CCCC3([C@H](OCCO)OC1)[C@H]2CC[C@H]1[C@@H](C)[C@@H]2CCO[C@@H]2C[C@@H]13 | 15.9% |  |  |  |  |  |  |  |  |
